We go through 26 compounds from patent publication US12084426B2, “Indazole carboxamides as kinase inhibitors” (BRISTOL-MYERS SQUIBB COMPANY, priority 2018, dated 2024).

Molecules are shown by their SMILES. Some results are limits rather than exact numbers.

In one experiment the test system is MLKL phosphorylation in HT29-L23 human colorectal adenocarcinoma cells. The experiment can be described thus: MLKL Phosphorylation High-Content Assay. Type of experiment: cell-based. Particulars: Homo sapiens, 6 h, necroptosis induced with TNFα, SMAC mimetic and Z-VAD, read-out: pMLKL (IC50). How it is done:
MLKL Phosphorylation High-Content Assay
HT29-L23 human colorectal adenocarcinoma cells were maintained in RPMI 1640 medium containing 10% heat-inactivated FBS, 1% Penicillin-Streptomycin and 10 mM HEPES. Cells were seeded at 2,000 cells/well in 384 well tissue culture-treated microplates (Greiner #781090-3B) and incubated at 37° C. (5% CO2/95% O2) for 2 d. On the day of the assay, the cells were treated with test compounds at final concentrations of 6.25 to 0.106 μM for 30 min at 37° C. (5% CO2/95% O2). Necroptosis was induced using a mixture of human TNFα (35 ng/mL) (Peprotech #300-01A), SMAC mimetic (from US 2015/0322111 A1) (700 nM) and Z-VAD (140 nM) (BD pharmingen #51-6936). Following 6 h incubation at 37° C. (5% CO2/95% O2), the cells were fixed with 4% formaldehyde (ACROS 11969-0010) for 15 min at rt, then permeabilized with phosphate buffered saline (PBS) containing 0.2% Triton-X-100 for 10 min. MLKL phosphorylation was detected using anti-MLKL (phospho S358) antibody (Abcam #ab187091) (1:1000 dilution in Blocking Buffer [PBS supplemented with 0.1% BSA]) with ON incubation at 4° C. After washing three times in PBS, goat anti-rabbit Alexa-488 (1:1000 dilution) (Life Technologies, A11008) and Hoechst 33342 (Life Technologies, H3570) (1:2000 dilution) in Blocking Buffer were added for 1 h at rt. Following another three cycles of washes in PBS, the microplates were sealed, and cellular images were acquired in the Cellomics ArrayScan VTI high-content imager equipped with an X1 camera. Fluorescent images were taken using a 10× objective and the 386-23 BGRFRN_BGRFRN and 485-20 BGRFRN_BGRFRN filter sets, for nuclei and MLKL phosphorylation, respectively. The image sets were analyzed using the Compartmental Analysis Bioapplication software (Cellomics). The level of MLKL phosphorylation was quantified as MEAN_CircRingAvgIntenRatio. The maximal inhibitory response was defined by the activity induced by Necls (CAS #: 852391-15-2, 6.25 μM). The IC50 value was defined as the concentration of compound that produces 50% of the maximal inhibition. The data were fitted using the 4-parameter logistic equation to calculate the IC50 and Ymax values.
With `CNC(=O)c1n[nH]c2cc(N3CCOC(C(=O)NCCC(O)c4ccc(F)c(F)c4)C3)ccc12` (centres unmarked) [Example 3, 6-(2-{[3-(3,4-difluorophenyl)-3-hydroxypropyl]carbamoyl}morpholin-4-yl)-N-methyl-1H-indazole-3-carboxamide], the concentration for half-maximal inhibition (IC50) (usually the concentration needed to halve the response being measured) was determined as 4300 nM.
For the compound `CNC(=O)c1n[nH]c2cc(N3CCCC(C(=O)NCC(O)COc4ccccc4)C3)ccc12` (single isomer, unassigned) [Example 6, 6-{3-[(2-hydroxy-3-phenoxypropyl)carbamoyl]piperidin-1-yl}-N-methyl-1H-indazole-3-carboxamide], the IC50 amounted to 4300 nM.
`CNC(=O)c1n[nH]c2cc(N3CCOC(C(=O)NCCC(C)c4ccc(F)cc4)C3)ccc12` (centres unmarked) [Example 24, 6-(2-{[3-(4-fluorophenyl)butyl]carbamoyl}morpholin-4-yl)-N-methyl-1H-indazole-3-carboxamide]: the IC50 amounted to 110 nM.
On to `CNC(=O)c1n[nH]c2cc(N3CCN(C)C(C(=O)NCCC(O)c4ccccc4)C3)ccc12` (centres unmarked) [Example 18, 6 6-{3-[(3-hydroxy-3-phenylpropyl)carbamoyl]-4-methylpiperazin-1-yl}-N-methyl-1H-indazole-3-carboxamide], for which the concentration for half-maximal inhibition (IC50) was determined as 2400 nM.
Take `CNC(=O)c1n[nH]c2cc(N3CCOC(C(=O)NCC4CC4c4cccc(F)c4)C3)ccc12` (centres unmarked) [Example 23]: the IC50 is 1600 nM.
Same read-out and setting: with `CNC(=O)c1n[nH]c2cc(N3CCCC(C(=O)NCCCOC4CCCCC4)C3)ccc12` (racemic) [Example 9, 6-(3-{[3-(cyclohexyloxy)propyl]carbamoyl}piperidin-1-yl)-N-methyl-1H-indazole-3-carboxamide] the figure was 3500 nM; with `CNC(=O)c1n[nH]c2cc(N3CCOC(C(=O)NC4CCCC(c5ccccc5)C4)C3)ccc12` (centres unmarked) [Example 26, N-methyl-6-{2-[(3-phenylcyclohexyl)carbamoyl]morpholin-4-yl}-1H-indazole-3-carboxamide], 2500 nM; with `CNC(=O)c1n[nH]c2cc(N3CCOC(C(=O)Nc4cnn(Cc5ccccc5)c4)C3)ccc12` (racemic) [Example 21, 6-{2-[(1-benzyl-1H-pyrazol-4-yl)carbamoyl]morpholin-4-yl}-N-methyl-1H-indazole-3-carboxamide], 1200 nM.
Turning to `CNC(=O)c1n[nH]c2cc(N3CCCC(C(=O)NCc4ccccc4OCC4CC4)C3)ccc12` (racemic) [Example 12, 6-[3-({[2-(cyclopropylmethoxy)phenyl]methyl}carbamoyl)piperidin-1-yl]-N-methyl-1H-indazole-3-carboxamide], the IC50 worked out at 290 nM.
Consider `CNC(=O)c1n[nH]c2cc(N3CCNC(C(=O)NCCC(C)c4ccccc4)C3)ccc12` (centres unmarked) [Example 4, N-methyl-6-{3-[(3-phenylbutyl)carbamoyl]piperazin-1-yl}-1H-indazole-3-carboxamide], for which the IC50 was 3200 nM.
The same measure, in the same setting: with `CNC(=O)c1n[nH]c2cc(N3CCOC(C(=O)NCCC(C)c4ccccc4)C3)ccc12` (centres unmarked) [Example 22, N-methyl-6-{2-[(3-phenylbutyl)carbamoyl]morpholin-4-yl}-1H-indazole-3-carboxamide] the figure was 440 nM.
The same measure, in the same setting: then `CNC(=O)c1n[nH]c2cc(N3CCN(C)C(C(=O)NCCC(C)c4ccccc4)C3)ccc12` (centres unmarked) [Example 20, N-methyl-6-{4-methyl-3-[(3-phenylbutyl)carbamoyl]piperazin-1-yl}-1H-indazole-3-carboxamide], with 2300 nM.
Regarding `CNC(=O)c1n[nH]c2cc(N3CCN(C)C(C(=O)NCCC(C)c4ccc(F)cc4)C3)ccc12` (centres unmarked) [Example 19, 6-(3-{[3-(4-fluorophenyl)butyl]carbamoyl}-4-methylpiperazin-1-yl)-N-methyl-1H-indazole-3-carboxamide], the IC50 worked out at 690 nM.
Same read-out and setting: then `CNC(=O)c1n[nH]c2cc(C3CCCN(C(=O)NCCC(C)c4ccccc4)C3)ccc12` (centres unmarked) [Example 5, N-methyl-6-{1-[(3-phenylbutyl)carbamoyl]piperidin-3-yl}-1H-indazole-3-carboxamide], with 190 nM.
The same measure, in the same setting: with `CNC(=O)c1n[nH]c2cc(N3CCCC(C(=O)NCCC(O)c4ccccc4)C3)ccc12` (centres unmarked) [Example 10, 6-{3-[(3-hydroxy-3-phenylpropyl)carbamoyl]piperidin-1-yl}-N-methyl-1H-indazole-3-carboxamide] the figure was 3600 nM; with `CNC(=O)c1n[nH]c2cc(N3CCCC(C(=O)NCc4ccccc4OC(F)(F)F)C3)ccc12` (centres unmarked) [Example 1, N-methyl-6-[3-({[2-(trifluoromethoxy)phenyl]methyl}carbamoyl)piperidin-1-yl]-1H-indazole-3-carboxamide], 660 nM; with `CNC(=O)c1n[nH]c2cc(N3CCCC(C(=O)NCc4ccccc4Oc4ccccc4)C3)ccc12` (racemic) [Example 8, N-methyl-6-(3-{ [(2-phenoxyphenyl)methyl]carbamoyl}piperidin-1-yl)-1H-indazole-3-carboxamide], 110 nM.
Consider `CNC(=O)c1n[nH]c2cc(N3CCN(C)C(C(=O)NCc4ccccc4OC)C3)ccc12` (centres unmarked) [Example 2, 6-(3-{[(2-methoxyphenyl)methyl]carbamoyl}-4-methylpiperazin-1-yl)-N-methyl-1H-indazole-3-carboxamide], for which the IC50 was over 6200 nM.
On the same count and under the same terms, then `CNC(=O)c1n[nH]c2cc(N3CCCC(C(=O)NC4CCCC(c5ccccc5)C4)C3)ccc12` (single isomer, unassigned) [Example 15, N-methyl-6-{3-[(3-phenylcyclohexyl)carbamoyl]piperidin-1-yl}-1H-indazole-3-carboxamide], with 1900 nM; and `CNC(=O)c1n[nH]c2cc(N3CCCC(C(=O)NCCC(C)c4ccccc4)C3)ccc12` (centres unmarked) [Example 17, N-methyl-6-{3-[(3-phenylbutyl)carbamoyl]piperidin-1-yl}-1H-indazole-3-carboxamide], with 200 nM; and `CNC(=O)c1n[nH]c2cc(N3CCCC(C(=O)NCCC(O)c4ccc(F)c(F)c4)C3)ccc12` (centres unmarked) [Example 14, 6-(3-{[3-(3,4-difluorophenyl)-3-hydroxypropyl]carbamoyl}piperidin-1-yl)-N-methyl-1H-indazole-3-carboxamide], with 2400 nM.
Same read-out and setting: with `CNC(=O)c1n[nH]c2cc(N3CCOC(C(=O)NCCC(O)c4ccc(Cl)cc4)C3)ccc12` (centres unmarked) [Example 25, 6-(2-{[3-(4-chlorophenyl)-3-hydroxypropyl]carbamoyl}morpholin-4-yl)-N-methyl-1H-indazole-3-carboxamide] the figure was 4500 nM.

Staying with this experiment, now noted: necroptosis induced with TNFα, SMAC mimetic and Z-VAD, 6 h, read-out: pMLKL (IC50).
As for `CNC(=O)c1n[nH]c2cc(N3CCCC(C(=O)NCCCOc4ccc(F)cc4)C3)ccc12` (centres unmarked) [Example 13, 6-(3-{[3-(4-fluorophenoxy)propyl]carbamoyl}piperidin-1-yl)-N-methyl-1H-indazole-3-carboxamide], the IC50 came out at 3200 nM.
Same read-out and setting: with `CNC(=O)c1n[nH]c2cc(N3CCCC(C(=O)Nc4cnn(Cc5ccccc5)c4)C3)ccc12` (centres unmarked) [Example 11, 6-{3-[(1-benzyl-1H-pyrazol-4-yl)carbamoyl]piperidin-1-yl}-N-methyl-1H-indazole-3-carboxamide] the figure was 2500 nM.
On the same count and under the same terms, then `CNC(=O)c1n[nH]c2cc(N3CCCC(C(=O)NCC(O)COc4ccccc4)C3)ccc12` (single isomer, unassigned) [Example 7, 6-{3-[(2-hydroxy-3-phenoxypropyl)carbamoyl]piperidin-1-yl}-N-methyl-1H-indazole-3-carboxamide], with 2200 nM; and `CNC(=O)c1n[nH]c2cc(N3CCCC(C(=O)NC4CCCC(c5ccccc5)C4)C3)ccc12` (racemic) [Example 16, N-methyl-6-{3-[(3-phenylcyclohexyl)carbamoyl]piperidin-1-yl}-1H-indazole-3-carboxamide], with 3100 nM.
